Results taken from patent publication US9341616B2, “Sweet taste receptor chimeric proteins and use thereof” (AJINOMOTO CO., INC., priority 2014, dated 2016).
Like-named read-outs stand apart in the source and are kept apart here. Residues, ends and D or L forms follow the SMILES beside them.

Columns and labels:
h-mT1R2-EX5/mT1R3 = h-mT1R2-EX5/mT1R3 (UniProt Q8TE23+Q925D8, A537S/A564V/A568V/A570T/A649T/A658V/A782V/E530V/E534N/E542M/E548N/F525Y/F665L/G696N/G701T/H528R/I490V/I510L/I518V/I595M/I643V/I645L/I692L/I695G/K504M/K626T/K714N/L521P/L571I/L578I/L610P/L631F/L636F/L639V/L688V/L702I/L734M/L800F/M492I/M616G/M682V/M690V/M748V/N540G/N541S/N721H/P638T/P824S/Q536L/Q546K/Q555R/Q676H/R498S/R667S/S501P/S547N/S550A/S628F/S663R/S670G/S681F/S703N/S727G/S784D/S804G/T529S/T549I/T609V/T629S/T642S/T705I/T706G/T716I/V508I/V512P/V557A/V585L/V613L/V617M/V673M/V687A/V691A/V694A/V718L/V741L/V774I/V791M/Y533F/Y615F/Y671F/Y769S/Y783H); details: Table 4; genes h-mTEX5/mT3 (h-mT1R2-EX5, mT1R3); HEK293E cells
Description: (§1) The HEK293E cells maintained by using the DMEM/Ham's F-12 medium (Nakarai Tesque) containing 10% fetal bovine serum ([…]) and 1% Pen Strep (GIBCO) were washed with D-PBS(−) (Nakarai Tesque), and collected from the flask by using 0.25% Trypsin EDTA (GIBCO). The cells were centrifuged (1,200 rpm, 3 minutes), and after the supernatant was removed, suspended in 5% FBS DMEM/Ham's F-12 at a density of 0.75×10^7 cell/ml. This suspension (10 ml) was put into a […] (IWAKI), and culture was performed overnight (37° C., 5% CO2). On the next day, the medium was exchanged with Opti-MEM (30 ml, Invitrogen, Life Technologies), a sweet taste receptor gene mixture (Gα15-trans48LD gene, various kinds of T1R2 chimeric genes, and various kinds of T1R3 chimeric genes, 63.8 μg in total) prepared by using Opti-MEM and Lipofectamin 2000 (Invitrogen, Life Technologies) was slowly added to the cell suspension, and incubation was performed (37° C., 5% CO2) for 6 hours to attain gene transfer.
(§2) After the gene transfer, the cells were washed with D-PBS(−), then removed from the flask by using 0.25% Trypsin EDTA (GIBCO), and collected. After the cell number was counted, the cells were suspended in the 5% FBS DMEM medium (2.78 mM glucose, GIBCO) at a density of 0.5×10^6 cell/ml. This cell suspension was put into wells of D-Lysine coat 96-well plate (BD bioscience) in such a volume that the cell count is 7.0×10^4 cells/well, and the cells were cultured overnight.
(§3) After the culture, all the medium of the 96 wells were discarded. 200 μl of the staining solution for measurement of intracellular calcium ion′ Calcium Assay Kit Express (Molecular Device), diluted 80 times with an assay buffer (20 mM HEPES, 146 mM NaCl, 1 mM MgSO4, 1.39 mM glucose, 1 mM CaC12, 2.5 mM Probenecid, 0.05% bovine serum albumin) was added to each well, and the plate was left standing at 37° C. for 30 minutes and at room temperature for 45 minutes to perform staining. After the staining, 50 μl of a solution of stimulant (sweet taste substance) prepared with the assay buffer was added to each well, and the fluorescence value was measured for 120 seconds after the stimulation by using FDSSμEELL (Hamamatsu Photonics). By measuring the fluorescence value (Ex. 480 nm, Em. 540 nm) before and after the stimulation, the change of the intracellular free calcium ion concentration caused by addition of the stimulant via a sweet taste receptor was quantitatively investigated. The measurement and analysis of the fluorescence value was performed by using the software attached to FDSSμEELL (FDSS7000EX), and ΔF/F value was calculated in accordance with the following equation, and used for the evaluation. ΔF/F=(Maximum fluorescence value after stimulation−Minimum fluorescence value after stimulation)/(Fluorescence value before stimulation)
(§4) Furthermore, by using the ΔF/F values obtained when each sweet taste substance was added, the S/N ratio was calculated. Specifically, the S/N value was calculated by using the minimum value of ΔF/F obtained when each substance was added at various concentrations as noise (N) value, and the similarly obtained maximum value of ΔF/F as the signal (S) value, and used as an index for sensitivity of the measurement of the activity of each receptor. That is, a higher S/N value means a higher sensitivity for detection of an interaction of a sweet taste receptor and a test substance, which makes it easier to detect stimulation with a sweet taste substance or sweet taste-regulating substance of a lower concentration.
(§5) The sweet taste substances used as the stimulating substance are acesulfame potassium (Tokyo Kasei Kogyo), sodium saccharin (WAKO), sucralose (SIGMA), sucrose (WAKO), and neotame (SIGMA), as well as aspartame, advantame, and SC-45647 ([3-[(S)-1-phenylethyl]-2-(4-cyanophenyl)guanidino]acetic acid, which were all synthesized in-house.

hT1R2/T1R3mosaicA = hT1R2/T1R3mosaicA (UniProt Q8TE23+Q925D8, A12W/A31M/A558R/A588V/A645S/A698V/A702T/A793V/A807V/C582S/C678S/E16H/E725V/F14L/F29L/F541I/F612A/F622V/F695L/H728R/I36V/I60P/I617V/I706V/I740A/I803L/K30R/K555R/K565R/K818R/K827G/L17P/L560F/L684P/L735F/L823M/L825Q/M19T/M644L/M744T/N52R/N547G/N58S/N63T/N675D/P545F/P561R/P564S/P61V/Q32K/Q53S/Q550E/Q56R/Q611L/Q757R/Q795R/Q831P/R632Q/S22P/S45E/S576L/S595F/S610P/S635P/S637R/S679G/S717H/T46A/T50G/T542A/T663I/T694M/T813A/V573A/V584A/V718M/V723A/V729T/V738A/V805L/V812A/V821L/W599R/W676R/W824R/Y680C/Y794L); details: HEK293E cells
Description: as §1, §2, §3, §4, §5

[1] = Table 5, genes hT2/T3mA (hT1R2, T1R3mA)
[2] = Table 6, genes hT2/T1R3mA (hT1R2, T1R3mA)

Sequence of hT1R2/T1R3mosaicA (Q8TE23 20-839, stated change not applied): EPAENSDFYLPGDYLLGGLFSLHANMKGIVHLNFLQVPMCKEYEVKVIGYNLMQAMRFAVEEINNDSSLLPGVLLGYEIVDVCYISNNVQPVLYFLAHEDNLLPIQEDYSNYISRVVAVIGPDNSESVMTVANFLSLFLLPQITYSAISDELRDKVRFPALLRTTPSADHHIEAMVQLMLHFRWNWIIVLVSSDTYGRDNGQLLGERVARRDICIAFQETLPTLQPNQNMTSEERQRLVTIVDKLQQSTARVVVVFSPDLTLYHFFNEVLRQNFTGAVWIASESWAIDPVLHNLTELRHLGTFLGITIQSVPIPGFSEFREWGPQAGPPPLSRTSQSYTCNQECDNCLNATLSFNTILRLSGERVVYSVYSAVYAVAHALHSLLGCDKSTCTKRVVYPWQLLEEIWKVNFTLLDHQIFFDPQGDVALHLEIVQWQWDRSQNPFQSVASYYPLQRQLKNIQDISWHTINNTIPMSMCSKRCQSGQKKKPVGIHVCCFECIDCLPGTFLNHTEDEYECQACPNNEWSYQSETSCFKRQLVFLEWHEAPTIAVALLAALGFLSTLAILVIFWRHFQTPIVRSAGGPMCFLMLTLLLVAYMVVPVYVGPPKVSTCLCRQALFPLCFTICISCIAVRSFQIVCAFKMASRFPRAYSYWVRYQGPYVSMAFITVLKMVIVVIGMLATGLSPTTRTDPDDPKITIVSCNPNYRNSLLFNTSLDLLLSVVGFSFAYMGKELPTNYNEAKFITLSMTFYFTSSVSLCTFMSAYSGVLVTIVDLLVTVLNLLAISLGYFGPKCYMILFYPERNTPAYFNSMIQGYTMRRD
Sequence of hT1R2/T1R3mosaicA (Q925D8 with tags, fused parts or gaps with the stated changes limits assumed): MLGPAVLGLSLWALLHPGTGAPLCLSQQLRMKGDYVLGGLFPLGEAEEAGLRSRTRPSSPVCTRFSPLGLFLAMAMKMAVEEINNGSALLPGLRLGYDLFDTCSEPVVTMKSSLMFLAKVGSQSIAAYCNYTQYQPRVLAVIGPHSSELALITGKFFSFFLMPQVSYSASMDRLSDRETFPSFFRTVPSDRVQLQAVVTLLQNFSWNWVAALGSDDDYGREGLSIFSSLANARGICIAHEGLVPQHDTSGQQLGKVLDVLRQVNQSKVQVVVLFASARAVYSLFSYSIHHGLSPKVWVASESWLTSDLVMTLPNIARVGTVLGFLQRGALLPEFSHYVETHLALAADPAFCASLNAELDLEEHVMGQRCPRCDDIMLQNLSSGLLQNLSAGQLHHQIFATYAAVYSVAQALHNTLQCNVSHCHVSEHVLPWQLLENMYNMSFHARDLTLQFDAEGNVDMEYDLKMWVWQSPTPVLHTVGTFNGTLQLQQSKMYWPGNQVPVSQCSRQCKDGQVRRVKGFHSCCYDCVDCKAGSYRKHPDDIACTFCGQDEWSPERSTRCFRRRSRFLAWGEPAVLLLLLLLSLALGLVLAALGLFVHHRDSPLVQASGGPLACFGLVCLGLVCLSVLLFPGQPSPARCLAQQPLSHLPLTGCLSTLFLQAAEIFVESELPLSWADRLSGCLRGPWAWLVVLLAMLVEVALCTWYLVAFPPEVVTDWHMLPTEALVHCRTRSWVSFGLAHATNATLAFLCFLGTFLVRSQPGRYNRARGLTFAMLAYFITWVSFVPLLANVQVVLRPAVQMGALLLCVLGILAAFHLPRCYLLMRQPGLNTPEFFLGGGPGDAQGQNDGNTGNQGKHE
Sequence of h-mT1R2-EX5/mT1R3 (Q8TE23 with tags, fused parts or gaps with the stated changes limits assumed): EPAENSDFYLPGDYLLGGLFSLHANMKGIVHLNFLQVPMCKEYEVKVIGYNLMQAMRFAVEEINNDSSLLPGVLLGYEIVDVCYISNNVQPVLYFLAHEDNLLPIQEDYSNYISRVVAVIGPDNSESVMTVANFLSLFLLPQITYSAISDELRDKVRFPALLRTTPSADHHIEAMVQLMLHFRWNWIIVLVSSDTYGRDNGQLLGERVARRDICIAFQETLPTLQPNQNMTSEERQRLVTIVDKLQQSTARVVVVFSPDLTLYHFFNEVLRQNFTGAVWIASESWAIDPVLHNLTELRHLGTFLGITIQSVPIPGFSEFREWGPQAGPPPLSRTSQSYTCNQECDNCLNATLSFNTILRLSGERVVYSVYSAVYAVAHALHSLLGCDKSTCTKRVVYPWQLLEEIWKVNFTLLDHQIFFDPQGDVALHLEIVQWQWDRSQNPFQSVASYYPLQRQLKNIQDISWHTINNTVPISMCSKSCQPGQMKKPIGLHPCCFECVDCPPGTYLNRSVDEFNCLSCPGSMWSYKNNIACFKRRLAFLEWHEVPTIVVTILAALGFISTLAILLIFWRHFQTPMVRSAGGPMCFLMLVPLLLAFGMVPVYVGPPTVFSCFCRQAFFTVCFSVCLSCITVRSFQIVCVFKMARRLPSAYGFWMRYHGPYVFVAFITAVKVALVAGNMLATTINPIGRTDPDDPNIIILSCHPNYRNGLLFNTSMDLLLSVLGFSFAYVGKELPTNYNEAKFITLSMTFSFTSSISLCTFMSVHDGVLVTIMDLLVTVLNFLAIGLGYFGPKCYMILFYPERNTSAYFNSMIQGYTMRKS
Sequence of h-mT1R2-EX5/mT1R3 (Q925D8 21-858, stated change not applied): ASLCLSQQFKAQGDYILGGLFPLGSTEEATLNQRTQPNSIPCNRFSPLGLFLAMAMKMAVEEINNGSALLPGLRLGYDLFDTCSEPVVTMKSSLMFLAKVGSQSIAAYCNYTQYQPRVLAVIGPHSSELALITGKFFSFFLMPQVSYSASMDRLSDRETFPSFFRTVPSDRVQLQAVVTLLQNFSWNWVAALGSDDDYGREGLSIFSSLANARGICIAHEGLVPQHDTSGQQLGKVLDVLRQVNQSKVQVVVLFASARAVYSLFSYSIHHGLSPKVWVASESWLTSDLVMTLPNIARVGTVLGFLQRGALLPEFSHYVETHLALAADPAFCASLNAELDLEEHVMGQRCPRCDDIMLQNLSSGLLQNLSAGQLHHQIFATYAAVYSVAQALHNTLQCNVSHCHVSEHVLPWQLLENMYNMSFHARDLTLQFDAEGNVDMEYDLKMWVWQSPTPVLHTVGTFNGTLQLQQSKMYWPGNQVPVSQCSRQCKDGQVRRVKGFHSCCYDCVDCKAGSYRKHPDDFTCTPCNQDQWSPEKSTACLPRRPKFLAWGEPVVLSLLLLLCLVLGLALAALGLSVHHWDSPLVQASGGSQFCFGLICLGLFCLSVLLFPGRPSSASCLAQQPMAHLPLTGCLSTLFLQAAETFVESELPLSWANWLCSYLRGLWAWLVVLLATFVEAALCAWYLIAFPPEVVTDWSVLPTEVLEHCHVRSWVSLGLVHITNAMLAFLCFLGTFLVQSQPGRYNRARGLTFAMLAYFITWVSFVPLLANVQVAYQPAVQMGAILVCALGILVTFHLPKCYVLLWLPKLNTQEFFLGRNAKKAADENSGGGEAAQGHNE

| SMILES | S/N (h-mT1R2-EX5/mT1R3) | S/N (hT1R2/T1R3mosaicA; [1]) | S/N (hT1R2/T1R3mosaicA; [2]) |
| --- | --- | --- | --- |
| OC[C@H]1O[C@H](O[C@]2(CCl)O[C@H](CCl)[C@@H](O)[C@@H]2O)[C@H](O)[C@@H](O)[C@H]1Cl [Sucralose, sucralose] | 5.9 | 6.0 | 5.9 |
| C[C@H](NC(=Nc1ccc(C#N)cc1)NCC(=O)O)c1ccccc1 [SC-45647, [3-[(S)-1-phenylethyl]-2-(4-cyanophenyl)guanidino]acetic acid] | 5.3 | 5.9 | 6.8 |
| COc1ccc(CCC(=O)c2c(O)cc(O[C@@H]3O[C@H](CO)[C@@H](O)[C@H](O)[C@H]3O[C@@H]3O[C@@H](C)[C@H](O)[C@@H](O)[C@H]3O)cc2O)cc1O [NHDC, neohesperidin dihydrochalcone] |  | 2.9 | 3.8 |
| COC(=O)[C@H](Cc1ccccc1)NC(=O)[C@H](CC(=O)O)NCCCc1ccc(OC)c(O)c1 [Advantame, advantame] | 7.0 | 7.6 | 7.5 |
| COC(=O)[C@H](Cc1ccccc1)NC(=O)[C@H](CC(=O)O)NCCC(C)(C)C [Neotame, neotame] | 5.2 | 5.7 | 6.5 |
| COC(=O)[C@H](Cc1ccccc1)NC(=O)[C@@H](N)CC(=O)O [Aspartame, aspartame] (HELM PEPTIDE1{D.F.[CO[*:1]]}$$$$V2.0) | 5.5 | 4.4 | 3.5 |
| OC[C@H]1O[C@@](CO)(O[C@H]2O[C@H](CO)[C@@H](O)[C@H](O)[C@H]2O)[C@@H](O)[C@@H]1O [Sucrose, sucrose] | 3.7 | 2.6 | 2.3 |
| CC1=CC(=O)NS(=O)(=O)O1 [Acesulfame K, acesulfame potassium] | 3.7 | 3.7 | 3.7 |
| O=C1NS(=O)(=O)c2ccccc21.[Na] [Saccharin Na, sodium saccharin] | 3.8 | 4.3 | 4.2 |
